For one data set, the system named is female mice C57BL/6j. Put plainly: Examination of antifeeding activity: test diets freely fed to mice for 42 days. Type of data set: in vivo. To be noted: for Total diet intake during test period: C57BL/6j mice. On the procedure: To examine the antifeeding activity of UHA1028, 8-week-old female mice C57BL/6j (manufactured by CLEA Japan, Inc.) were used. […] The mice were freely fed for 42 days. During the feeding period of test diets, the diet intake and the weight were measured twice a week.
A required amount of the UHA1028 was obtained by repeating the formation and isolation described in Example 1.
In Table 2, the amount of each component is represented as g per kg of diet.
The test diets fed to the control groups are, a normal diet, a high-fat diet, and a high-fat diet containing resveratrol but containing no test substance respectively.

In data set [1] the test system is agouti-related peptide (AgRP). The following applies: reporter assay in cultured cells; cited from earlier work. (In general: A reporter such as luciferase makes a cellular process visible.)
The test system of the next data set is NPY. The following applies: reporter assay in cultured cells; cited from earlier work.
Setting [2] is: 0.4% test substance in high-fat diet, 42 days.

`Oc1ccc(C=Cc2cc(O)cc(O)c2)cc1` [Resveratrol, resveratrol, reference compound]: the “Total diet intake during test period” value in the data set with female mice C57BL/6j (setting [2]) was found to be 106.7 g. Also, the “antifeeding activity on long-term administration” value in the data set with female mice C57BL/6j (administered for a long period of time, as in the examples) is given as “very low antifeeding activity”. Moreover, in data set [1], the “expression of AgRP” value is “suppressed the expression of AgRP and NPY”. For the same molecule, the “expression of NPY” value in the data set with NPY was “suppressed the expression of AgRP and NPY”.
As for `COc1cc(C(C)c2c(O)cc(/C=C/c3ccc(O)cc3)cc2O)cc(OC)c1O` (stereo not drawn) [UHA1028], the “change in diet intake (FIG. 2)” value in the data set on female mice C57BL/6j (0.05% UHA1028-containing high-fat diet versus 0.4% resveratrol intake group) is “significantly reduced as compared with the resveratrol intake group”. In addition, the “Total diet intake during test period” value in the data set on female mice C57BL/6j (0.05% test substance in high-fat diet, 42 days) is on record as 88.4 g; in the data set with female mice C57BL/6j (0.1% test substance in high-fat diet, 42 days) it was 87.1 g; in the data set on female mice C57BL/6j (0.2% test substance in high-fat diet, 42 days), 99.9 g; with female mice C57BL/6j (setting [2]), 97.5 g. Moreover, the “weight increase (FIG. 3)” value in the data set on female mice C57BL/6j (0.4% UHA1028 in high-fat diet versus 0.4% resveratrol intake group) is given as “significantly suppressed as compared with the resveratrol intake group”. Also, the “diet intake versus the other groups” value in the data set on female mice C57BL/6j (UHA1028 intake groups 0.05-0.4% in high-fat diet, Table 3) is “significantly lower than those of the other groups”. Moreover, the “anatomy of the mice at the end of the test (organs)” value in the data set on female mice C57BL/6j (four UHA1028 intake groups (0.05-0.4%), 42 days) is on record as “no contraction or hypertrophy of organs was observed”.

The values above are taken from patent US20150321985A1, “(HYDROXYSTILBENE COMPOUND)-(SINAPINIC ACID) REACTION PRODUCT HAVING ANTIFEEDING ACTIVITY” (UHA MIKAKUTO CO., LTD., priority 2012, published 2015).
